Experiment [1] has as its system Hek293 WFS1 over-expressor. Description: In vitro cell viability (CellTiter-Glo), Hek293 WFS1 over-expressor. It is filed as cell-based. The conditions noted are these: read-out: Hek293 WFS1 viability. The method in brief: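 HEK293 cells stably overexpressing WFS1 via retroviral transduction (puromycin-selected), with empty-vector cells as counterpart, plated 1,000/well. Compounds added at various concentrations after overnight attachment; viability by CellTiter-Glo luminescence after 96 h, reported as IC50.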
(In general: ATP-based viability assays read luminescence as a measure of living cells.)

The subject of experiment [2] is β-catenin-TCF-mediated reporter transcription activity in Colo 205 cells. Description: Colo 205 reporter assay (TCF/LEF luciferase). It counts as cell-based. The conditions noted are these: Colo 205 TCF/LEF luciferase reporter, five hours after addition of compound, read-out: TCF reporter Colo205 IC50. The method in brief: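 Luciferase signal from a TCF/LEF-driven reporter, stably integrated in Colo 205 colon cancer cells, was measured 5 h after compound addition.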

The mark [3] stands for this setting: Homo sapiens, HEK293, Hek293 WFS1 over-expressing cells.
Setting [4] is: Hek293 WFS1 over-expressing cells.

Like-named read-outs stand apart in the source and are kept apart here.

In the case of `Cc1ncc(Cn2cc(CNc3nc(C)c4c(n3)N(C)[C@@H](C(C)C)C(=O)N4)cn2)cc1F` [Compound 425, (7S)-2-(((1-((5-fluoro-6-methylpyridin-3-yl)methyl)-1H-pyrazol-4-yl)methyl)amino)-7-isopropyl-4,8-dimethyl-7,8-dihydropteridin-6(5H)-one], the IC50 in experiment [1] (setting [3]) is 60 to 600 nM; in experiment [2] (Homo sapiens, COLO 205, 5 h), under 300 nM.

On to `CC[C@H]1C(=O)Nc2cnc(NCc3cnn(Cc4ccc(C(F)(F)F)nc4)c3)nc2N1C` [Compound 427, (7S)-7-ethyl-8-methyl-2-(((1-((6-(trifluoromethyl)pyridin-3-yl)methyl)-1H-pyrazol-4-yl)methyl)amino)-7,8-dihydropteridin-6(5H)-one], for which the IC50 in experiment [1] (setting [3]) fell in the range of 60 to 600 nM; in experiment [2] (Homo sapiens, COLO 205, 5 h), 300 to 1000 nM.

As for `Cc1nc(NCc2cn(Cc3ccc(C(F)(F)F)nc3)cn2)nc2c1NC(=O)[C@H](C)N2C` [Compound 428, (S)-4,7,8-trimethyl-2-(((1-((6-(trifluoromethyl)pyridin-3-yl)methyl)-1H-imidazol-4-yl)methyl)amino)-7,8-dihydropteridin-6(5H)-one], the IC50 in experiment [1] (setting [3]) is at least 3000 nM; in experiment [2] (Homo sapiens, COLO 205, 5 h), at least 5000 nM.

Regarding “(7S)-2-(((1-((6-fluoro-2-isopropylpyridin-3-yl)methyl)-1H-pyrazol-4-yl)methyl)(methyl)amino)-7-isopropyl-4,8-dimethyl-7,8-dihydropteridin-6(5H)-one [Compound 430]”, the values for the IC50 in experiment [1] (setting [4]) and in experiment [2] were under 60 nM and under 300 nM, respectively.

With “(7S)-4,7,8-trimethyl-2-((trans-3-(3,4-difluorophenoxy)cyclobutyl)amino)-7,8-dihydropteridin-6(5H)-one [Compound 251]”, the IC50 was in the range of 60 to 600 nM in experiment [1] (setting [4]) and 300 to 1000 nM in experiment [2].

These data come from patent US20230312587A1, “PTERIDINONE COMPOUNDS AND USES THEREOF” (Vertex Pharmaceutical Incorporated, priority 2018, published 2023).
